Read-outs that look alike come from different tables or passages of the source.
Legend:
[1] = system: human colon carcinoma cell line, SW-480; assay: Growth inhibition, Sulforhodamine B (SRB) protein binding assay; type: cell-based; settings: for inhibition at 100 µM: SW480, 144 h, SW-480, six days
Protocol: The compounds of Examples #1, #8, and #9 were assayed for their growth inhibitory activity on the human colon carcinoma cell line, SW-480 obtained from ATCC (Rockville, Md.), to ascertain the degree of growth inhibition. Growth inhibition of this cell line is indicative of a benefit on precancerous lesions and neoplasms. The cell line and growth assay employed for such experiments are well characterized, and are used to evaluate the anti-neoplastic properties of compounds. The assay is used by the United States National Cancer Institute in its screening program for new anti-cancer drugs.
Drug stock solutions were made in 100% DMSO and were then diluted with RPMI media for cell culture testing. All drug solutions were prepared fresh on the day of testing. The cultured cells were obtained at passage #99 and grown in RPMI media supplemented with 5% fetal calf serum, and 2 mM glutamine, 100 U/ml penicillin, […] streptomycin, and 0.25 μg/ml amphotericin. The cultures were maintained in a humidified atmosphere of 95% air and 5% CO2 at 37° C. The cultures were passaged at preconfluent densities using a solution of 0.05% trypsin and 0.53 mM EDTA. Cells were plated at 1000 cells/well for 96 well flat-bottom microtiter plates.
Tumor cell growth inhibition was assessed using the Sulforhodamine B (SRB) protein binding assay. […] For each plate, 6 wells were designated as no treatment controls, six wells as vehicle (0.1% DMSO) controls, and the remaining wells for drug dilutions with three wells per drug. At the end of the exposure period, the cells were fixed and stained with sulforhodamine B, a protein binding dye. The dye was then solubilized, and the optical density of the resulting solution was determined on a 96-well plate reader. The mean dye intensity of the treated wells was then divided by the mean dye intensity in the control wells (6 wells of each) to determine the effect of the drug on the cells. Dye intensity is proportional to the number of cells or amount of protein per well. The resultant "percent inhibition" value then represents the degree of growth inhibition caused by the drug.
In addition, a dose response for growth inhibition was determined for the compound of Example 9, and an IC50 value was determined. This value is equivalent to the concentration of drug needed to inhibit tumor cell growth by 50%. […] Each experiment included at least three wells per drug concentration. Concentration was plotted on a log scale on the X-axis.

[2] = system: SW-480 colon adenocarcinoma cells; assay: Apoptosis, DNA fragmentation (Cell Death Detection ELISA plus); type: cell-based, human; settings: for EC50: SW-480, by data analysis software or estimated from effective concentration range
Protocol: (§1) Apoptosis was also measured based on the amount of fragmented DNA contained in cell lysates. Briefly, SW-480 colon adenocarcinoma cells were plated in 96-well microtitre plates ("MTP") at a density of 10K cells/well in 180 μl and were incubated for 24 hrs. Cells were then treated with 20 μl aliquots of appropriately diluted compound, and allowed to incubate for an additional 48 hrs.
After the incubation, samples were prepared according to the following steps. The MTP was centrifuged (15 min., 1000 rpm) and the supernatant was carefully removed by fast inversion of the MTP. The cell pellets in each well were resuspended in 200 μl lysis buffer and incubated for 45 min. at room temperature to lyse the cells. The lysates were then centrifuged (15 min., 1000 rpm) and 20 μl aliquots of the supernatant (=cytoplasmicfraction) were transferred into the streptavidin-coated MTP for analysis. Care was taken not to shake the lysed pellets in the MTP (=cell nucleii containing high molecular weight, unfragmented DNA). Samples were analyzed immediately, because storage at 4° C. or -20° C. reduces the ELISA-signals.
Samples were then processed according to a DNA fragmentation assay protocol, and dose-response curves were generated based on optical density readings. Quantification of DNA was done by a commercially available photometric enzyme-immunoassay manufactured by Mannheim-Boehringer under the name "Cell Death Detection ELISA ^plus ". The assay is based on a quantitative sandwich-enzyme-immunoassay-principle using mouse monoclonal antibodies directed against DNA and histones, respectively. This allows the specific determination of mono and oligonucleosomes in the cytoplasmatic fraction of cell lysates. In brief, the assay procedure is as follows. The sample (cell-lysate, serum, culture-supematant etc.) is placed into a streptavidin-coated MTP. Subsequently, a mixture of anti-histone-biotin and anti-DNA-POD is followed by incubation for 2 hours. During the incubation period, the anti-histone antibody binds to the histone-component of the nucleosomes and simultaneously fixes the immunocomplex to the streptavidin-coated MTP via its biotinylation. Additionally, the anti-DNA-POD antibody reacts with the DNA component of the nucleosomes. After removal of unbound antibodies by washing, the amount of nucleosomes is quantified by the POD retained in the immunocomplex. POD is determined photometrically with ABTS® (2,2'-Azino-di[3-ethylbenzthiazolin-sulfonate]) as substrate.
Fold stimulation (FS=ODmax/ODveh), an indicator of apoptotic response, was determined for each compound tested. EC50 values were determined either specifically by data analysis software, or by estimates based on the effective concentration range of each compound (ECR=min. effective dose-min. dose to peak effect). These FS and EC50 values for the tested compounds are listed above in Table 3.
(§2) In addition, using the DNA fragmentation test above, dose responses for the compounds of Example 8 and 9 were obtained.
Based on the data obtained from the DNA fragmentation tests in Tables 4 and 5, fold stimulations values for those compounds are also calculated at 100 μM by dividing the optical densities obtained at 100 μM by the optical densities of the control. Based on the data in Tables 4 and 5, fold stimulation values of 3.9 and 2.1 for the compounds of Examples 8 and 9 are obtained, accordingly.

[3] = system: SW-480 colon adenocarcinoma cells; assay: Growth (% vehicle) in dose response of the DNA fragmentation test; type: cell-based; settings: Homo sapiens, SW480, 48 h
Protocol: as §1, §2

[4] = system: HT-29 human colon carcinoma cells; assay: Apoptosis, morphology of apoptotic cells by fluorescent microscopy (acridine orange / ethidium bromide); type: cell-based
Protocol: Apoptosis was measured using an assay of cell death based on morphological characteristics of apoptotic cells (i.e., condensed chromatin). Drug preparation and cell culture conditions were the same as for the SRB assay described above, except that HT-29 human colon carcinoma cells were used. Confluent cultures were established in 12.5 cm^2 flasks by plating 0.5×10^6 cells/flask. The cultures were assayed for apoptosis by fluorescent microscopy following labeling with acridine orange and ethidium bromide. Floating and attached cells were collected by trypsinization and washed three times in PBS. One ml aliquots were centrifuged (3 g). The pellet was resuspended in 25 μl media and 1 μl of a dye mixture containing 100 μg/ml acridine orange and 100 μg/ml ethidium bromide prepared in PBS and mixed gently. Ten μl of the mixture were placed on a microscope slide and covered with a 22 mm^2 coverslip, which was examined with 40× dry objectives under epillumination by filter combination.
An observer blinded in regard to the identity of the samples scored at least 100 cells per sample. Apoptotic cells were identified by nuclear condensation of chromatin stained by the acridine orange or ethidium bromide.

[5] = molecular target: T1, purified cyclooxygenase Type I (COX-I) (Ovis aries, UniProt P05979); assay: Cyclooxygenase Type I (COX-I) inhibition; type: biochemical, ram; settings: arachidonic acid 100 μM, 2.0 min at 37° C.
T1 construct: The COX-I was purified from ram seminal vesicles; from tissue; host or cells: ram seminal vesicles
T1 sequence (P05979 25-600): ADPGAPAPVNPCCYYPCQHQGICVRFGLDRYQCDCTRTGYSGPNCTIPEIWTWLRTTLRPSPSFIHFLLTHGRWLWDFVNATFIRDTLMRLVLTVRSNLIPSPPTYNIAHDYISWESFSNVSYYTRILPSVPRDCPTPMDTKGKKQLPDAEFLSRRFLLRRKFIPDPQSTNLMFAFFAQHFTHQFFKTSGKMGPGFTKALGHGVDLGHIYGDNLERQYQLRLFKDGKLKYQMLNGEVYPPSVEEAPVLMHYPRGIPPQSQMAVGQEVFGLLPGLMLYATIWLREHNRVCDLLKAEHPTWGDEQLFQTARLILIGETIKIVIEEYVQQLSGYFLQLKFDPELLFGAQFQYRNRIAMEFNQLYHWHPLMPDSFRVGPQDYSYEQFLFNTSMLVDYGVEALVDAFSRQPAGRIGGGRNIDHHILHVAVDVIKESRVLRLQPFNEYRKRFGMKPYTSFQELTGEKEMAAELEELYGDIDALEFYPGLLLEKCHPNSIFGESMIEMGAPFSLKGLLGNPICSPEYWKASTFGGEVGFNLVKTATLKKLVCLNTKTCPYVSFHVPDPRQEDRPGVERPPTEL
Protocol: COX-I catalyzes the formation of prostaglandins and thromboxane by the oxidative metabolism of arachidonic acid.
Briefly, purified COX-I was incubated with arachidonic acid (100 μM) for 2.0 min at 37° C. in the presence or absence of test compounds. The assay was terminated by the addition of TCA, and COX-I activity was determined by absorbance at 530 nm.

colonic polyps = settings: cited from earlier work
[6] = Homo sapiens, SW480, 48 h, 100 μM, OD at 100 μM divided by OD of control, read-out: fold stimulation calculated at 100 μM from Tables 4 and 5
[7] = Homo sapiens, SW480, 100 μM, FS=ODmax/ODveh, fold stimulation, SW-480, 48 hrs, read-out: DNA Fragmentation FS (100 μM)

## COc1cc(/C=C2/C(C)=C(CCO)c3cc(F)ccc32)cc(OC)c1OC [Example 8, (Z)-5-Fluoro-2-Methyl-1-(3,4,5-Trimethoxybenzylidene)-1H-3-Indenyl-(2-Hydroxy)Ethane]
[1]
  inhibition at 100 µM: 93%
[2]; 0.001 μM
  Apoptosis Level (Mean OD Value ± SD): 0.252 ± 0.017 OD
[2]; 0.01 μM
  Apoptosis Level (Mean OD Value ± SD): 0.272 ± 0.013 OD
[2]; 0.1 μM
  Apoptosis Level (Mean OD Value ± SD): 0.277 ± 0.044 OD
[2]; 1 μM
  Apoptosis Level (Mean OD Value ± SD): 0.304 ± 0.044 OD
[2]; 10 μM
  Apoptosis Level (Mean OD Value ± SD): 0.355 ± 0.049 OD
[2]; 100 μM
  Apoptosis Level (Mean OD Value ± SD): 0.974 ± 0.124 OD
[2]; 500 μM
  Apoptosis Level (Mean OD Value ± SD): 0.76 ± 0.113 OD
[2]; [6]
  fold induction at 100 µM: 3.9
[2]; [7]
  fold induction at 100 µM: 5.4
[2]; Homo sapiens, SW480
  EC50: 20 µM
[3]; 0.001 μM
  activity at 0.001 µM: 101 ± 4.6%
[3]
  activity at 0.01 µM: 109 ± 9.2%
  activity at 0.1 µM: 105 ± 5.5%
  activity at 1 µM: 103 ± 6.6%
  activity at 10 µM: 24 ± 16%
  activity at 100 µM: 5 ± 0.6%
[3]; 500 μM
  activity at 500 µM: 9 ± 3.4%

## CC1=C(CC(=O)O)c2cc(F)ccc2/C1=C\c1ccc(S(C)(=O)=O)cc1 [Exisulind, reference compound]
[2]; Homo sapiens, SW480, 700 μM, FS=ODmax/ODveh, fold stimulation, SW-480, 48 hrs
  fold induction at 700 µM: 3.4
[2]; Homo sapiens, SW480
  EC50: 425 µM
[4]; 540 μM
  Morphology % Apoptotic Cells (@540 μM): 48%

## CC1=C(CCO)c2cc(F)ccc2/C1=C\c1ccc(S(C)(=O)=O)cc1 [Example 9, (Z)-5-Fluoro-2-Methyl-1-(4-Methylsulfonylbenzylidene)-1H-3-Indenyl-(2-Hydroxy)Ethane]
[5]
  inhibition at 100 µM: < 25%
[1]
  inhibition at 100 µM: 84%
[1]; SW480, SW-480, obtained graphically from dose response
  IC50: 29.2 µM
[2]; 0.01 μM
  Apoptosis Level (Mean OD Value ± SD): 0.272 ± 0.033 OD
[2]; 0.05 μM
  Apoptosis Level (Mean OD Value ± SD): 0.285 ± 0.03 OD
[2]; 0.1 μM
  Apoptosis Level (Mean OD Value ± SD): 0.312 ± 0.05 OD
[2]; 0.5 μM
  Apoptosis Level (Mean OD Value ± SD): 0.258 ± 0.03 OD
[2]; 1 μM
  Apoptosis Level (Mean OD Value ± SD): 0.296 ± 0.052 OD
[2]; 5 μM
  Apoptosis Level (Mean OD Value ± SD): 0.239 ± 0.024 OD
[2]; 10 μM
  Apoptosis Level (Mean OD Value ± SD): 0.261 ± 0.022 OD
[2]; 50 μM
  Apoptosis Level (Mean OD Value ± SD): 0.259 ± 0.068 OD
[2]; 100 μM
  Apoptosis Level (Mean OD Value ± SD): 0.742 ± 0.095 OD
[2]; [6]
  fold induction at 100 µM: 2.1
[2]; [7]
  fold induction at 100 µM: 6.5
[2]; Homo sapiens, SW480
  EC50: 89.3 µM
[3]
  activity at 0.01 µM: 107 ± 7.4%
  activity at 0.1 µM: 111 ± 16.7%
  activity at 1 µM: 106 ± 6.3%
  activity at 10 µM: 103 ± 9.3%
  activity at 100 µM: 21 ± 0.65%
[3]; 0.05 μM
  activity at 0.05 µM: 108 ± 9.6%
[3]; 0.5 μM
  activity at 0.5 µM: 114 ± 18.1%
[3]; 5 μM
  activity at 5 µM: 100 ± 8.3%
[3]; 50 μM
  activity at 50 µM: 35 ± 0.246%
[4]; 100 μM
  Morphology % Apoptotic Cells 100 μM: 98%

## CSc1ccc(/C=C2/C(C)=C(CCO)c3cc(F)ccc32)cc1 [Example 1, (Z)-5-Fluoro-2-Methyl-1-(4-Methylthio-Benzylidene)-1H-3-Indenyl-(2-Hydroxy)Ethane]
[5]
  inhibition at 100 µM: 70%
[1]
  inhibition at 100 µM: 71%
[2]; [7]
  fold induction at 100 µM: 4.9

## CC1=C(CC(=O)O)c2cc(F)ccc2/C1=C\c1ccc([S+](C)[O-])cc1 (stereo not drawn) [sulindac]
Colonic polyps; chronic administration, high cancer-risk patients
  gastric side effects: causes gastric side effects in many such patients
Colonic polyps; patients
  effect on colonic polyps: Polyps virtually disappear
